Measured values reported in US20090074766A1, “Methods of inhibiting HIV-2 infection” (priority 2007, published 2009).
Read-outs that look alike come from different tables or passages of the source.

B1: PRO 140: humanized IgG4,κ anti-CCR5 monoclonal antibody, humanized version of murine mAb PA14 (antibody, chains of the INN, looked up, V domains shown)
VH: EVQLVESGGGLVKPGGSLRLSCAASGYTFSNYWIGWVRQAPGKGLEWIGDIYPGGNYIRNNEKFKDKTTLSADTSKNTAYLQMNSLKTEDTAVYYCGSSFGSNYVFAWFTYWGQGTLVTVSS
VL: DIVMTQSPLSLPVTPGEPASISCRSSQRLLSSYGHTYLHWYLQKPGQSPQLLIYEVSNRFSGVPDRFSGSGSGTDFTLKISRVEAEDVGVYYCSQSTHVPLTFGQGTKVEIK

What was measured:
[1] = system: reporter viruses pseudotyped with HIV-1JR-FL envelope; type: cell-based; design: CI90: unit not given beside the values; conditions: for CI50 / CI90: envelope JRFL; for IC90 / IC50: 1st inhibitor alone, HIV-1 envelope JRFL
Text: HIV-1 pseudoparticles (HIV-1pp) are generated in 293T cells by transient coexpression of an HIV-1-based NL4/3luc+env− plasmid and a construct encoding HIV-1JRFL Env. The NL4/3luc+env− plasmid was obtained from the NIH AIDS Research and Reference Reagent Program (Cat. No. 3418), and the HIV-1JRFL Env was inserted into the pcDNA3.1 vector (Invitrogen). Briefly, 293T cells are calcium phosphate transfected with a 1:1 ratio of NL4/3luc+env− reporter vector and Env expression vector in Hepes buffer (Profection Mammalian Transfection Kit, Promega). After 16 h the transfection medium is aspirated and fresh cell culture medium (DMEM with 10% FBS, glutamine and antibiotics) is added and the incubation is continued at 37° C. for an additional 24-32 h. Cell culture supernatants are collected 48 h post-transfection and centrifuged at 1,400 rpm for 10 min to pellet cell debris. The viral supernatant is brought to a final concentration of 5% sucrose and stored aliquoted at −80° C.
U87-CD4-CCR5 cells were obtained from the NIH AIDS Research and Reference Program (Cat. No. 4035). These cells are maintained in culture medium (DMEM with 10% FBS, antibiotics and glutamine) containing 0.3 mg/ml G418 and 0.5 mg/ml puromycin. Cells are grown in T175-cm^2 flasks at 37° C. and diluted 1:5 every 3-4 days. For assay plate preparation, cells are trypsinized and seeded into wells of 96-well tissue-culture treated flat bottom opaque polystyrene plates (Perkin Elmer, Boston, Mass.) at a density of 3×10^3 cells/well. Plates are incubated for no more than 4 h at 37° C. in a humidified 5% CO2 incubator prior to their use in the HIV-1 pp susceptibility assay.
Fifty μl of diluted compound at 4× the desired final concentration are added per well. For compounds solubilized in DMSO, the 4× stock will contain 2% DMSO (such that the final DMSO concentration in the assay is always 0.5% for small molecules). Control wells receiving no compound are included on each plate. In addition, an AZT inhibition control is included in each assay. Compounds are tested individually and at a fixed mass or molar ratio over a broad range of concentrations.
A vial of frozen, aliquoted HIV-1pp is thawed in a 37° C. waterbath and then placed on wet ice. Virus is diluted in cold cell culture medium as necessary to achieve the desired final virus concentration in the HIV-1pp assay (about 10,000 relative light units (rlu) per well). 50 μl of diluted virus are added per well, bringing the final well volume to 200 μl. A no-virus control (minimum or background luminescence) and a no-compound control (maximum luminescence) are included on each plate. The plates are incubated for 72 h at 37° C. in a humidified 5% CO2 incubator followed by processing for luciferase signal (see below).
Assay medium is aspirated and 200 μl of PBS are added to each well. […] Assay plates are then frozen for at least 2 h at −80° C. followed by thawing at room temperature and vigorous mixing with an electronic pipettor. 25 μl from each well are transferred to an opaque 96-well plate (Costar #3922). Four replicates are pooled into the same well on the opaque plate. 100 μl of freshly thawed and reconstituted luciferase substrate (Luciferase Assay System, Promega—Cat. No. E1501) are added to each well of the plate with the electronic pipettor, and luminescence is detected immediately on a Dynex MLX plate reader set to medium gain.
The percent inhibition is derived as follows: [1−(luciferase activity in the presence of drug/luciferase activity in the absence of drug)]×100. IC50 values are determined by fitting the inhibition data with a non-linear, four-parameter, variable slope equation (GraphPad Prism, ver. 4.02; GraphPad Software, San Diego, Calif.). Upper and lower inhibition values are constrained to 100% and 0%, respectively for curve fitting. […]

[2] = system: reporter viruses pseudotyped with HIV-1SF162 envelope; type: cell-based; design: CI90: unit not given beside the values; conditions: for CI50 / CI90: envelope SF162; for IC50 / IC90: 1st inhibitor alone, HIV-1 envelope SF162
Text: A self-inactivating (SIN) vector was derived from the pNL4-3ΔEnv-luciferase vector (Dragic et al. 1996) by deleting 507 basepairs in the U3 region of the 3′ long terminal repeat (LTR) so as to remove the TATA box and transcription factor binding sites. The human cytomegalovirus promoter was inserted upstream of the luciferase (luc) gene to enable expression of luciferase following integration.
Reporter viruses pseudotyped with HIV-1JR-FL or HIV-1SF162 envelopes were generated by cotransfection of 293T cells with the SIN vector and the appropriate pcDNA env-expressing vector as previously described (Dragic et al. 1996). […] Cultures were incubated for 72 h at 37° C. in DMEM containing 10% fetal bovine serum, 1 mg/mL puromycin, 0.3 mg/mL geneticin, antibiotics, and 0.5% DMSO. Luciferase activity (relative light units or RLU) was measured using BrightGlo reagent (Promega, Madison, Wis.) according to the manufacturer's instructions. Percent inhibition was calculated as: (1−RLU in the presence of inhibitor/RLU in the absence of inhibitor)×100.
Experimental design and data analysis were based on the combination index (CI) method (Chou et al. 1991; Chou et al. 1984). Compounds were tested individually and in combination at a fixed molar ratio over a range of serial dilutions. […] The mutually exclusive CI formula was used for combinations of CCR5 inhibitors, while the mutually non-exclusive formula was utilized for combinations of inhibitors to distinct targets (Chou et al. 1991). Each test was conducted 4-12 times. Synergy, additivity and antagonism are indicated by CI<1, CI=1 and CI>1, respectively.

[3] = labelled 1st inhibitor with 2nd inhibitor PRO 140, equimolar (1:10 PRO 140 to zidovudine or nevirapine)
[4] = labelled 1st inhibitor with 2nd inhibitor SCH-D

Molecule | CI50 [1, 3] | CI90 [1, 3] | CI50 [2, 3] | CI90 [2, 3] | IC90 ([1]; read-out: IC90) [nM] | IC50 ([2]; read-out: IC50) [nM] | IC90 ([2]; read-out: IC90) [nM] | IC50 [1] [nM] | IC90 [1] [nM] | CI90 [1, 4] | IC50 [2] [nM] | IC90 [2] [nM] | CI90 [2, 4] | IC50 ([1]; read-out: IC50) [nM]
COc1ccnc2[nH]cc(C(=O)C(=O)N3CCN(C(=O)c4ccccc4)C[C@H]3C)c12 [BMS-378806, (R)-N-(benzoyl)-3-methyl-N′-[(4-methoxy-7-azaindol-3-yl)-oxoacetyl]-piperazine] | 1.2 ± 0.38 | 0.74 ± 0.23 | 1.1 ± 0.28 | 0.82 ± 0.21 |  |  |  |  |  |  |  |  |  | 
COC[C@@H](c1ccc(C(F)(F)F)cc1)N1CCN(C2(C)CCN(C(=O)c3c(C)ncnc3C)CC2)C[C@@H]1C [SCH-D, 1-[(4,6-dimethyl-5-pyrimidinyl)carbonyl]-4-[4-[2-methoxy-1(R)-4-(trifluoromethyl)phenyl]ethyl-3(S)-methyl-1-piperazinyl]-4-methylpiperidine] |  |  |  |  | 44 | 0.34 | 14 |  |  |  |  |  |  | 
Cc1nnc(C(C)C)n1C1CC2CCC(C1)N2CC[C@H](NC(=O)C1CCC(F)(F)CC1)c1ccccc1 (stereo partly drawn) [UK-427,857] |  |  |  |  |  |  |  | 7.4 | 46 | 1.2 ± 0.15 | 0.87 | 13 | 0.86 ± 0.28 | 
B1 | 1.2 ± 0.32 | 0.90 ± 0.15 | 1.0 ± 0.27 | 0.86 ± 0.33 | 28 | 1.3 | 20 |  |  |  |  |  |  | 2.2
